The source of these data is patent US9199935B2, “Pharmaceutically active piperidine derivatives” (Acetelion Pharmaceuticals Ltd., priority 2001, dated 2015).

The target in one experiment is T1, human recombinant GCS (Homo sapiens, UniProt Q16739).
T1 construct: made in house; host or cells: insect cells
T1 sequence (Q16739 1-394): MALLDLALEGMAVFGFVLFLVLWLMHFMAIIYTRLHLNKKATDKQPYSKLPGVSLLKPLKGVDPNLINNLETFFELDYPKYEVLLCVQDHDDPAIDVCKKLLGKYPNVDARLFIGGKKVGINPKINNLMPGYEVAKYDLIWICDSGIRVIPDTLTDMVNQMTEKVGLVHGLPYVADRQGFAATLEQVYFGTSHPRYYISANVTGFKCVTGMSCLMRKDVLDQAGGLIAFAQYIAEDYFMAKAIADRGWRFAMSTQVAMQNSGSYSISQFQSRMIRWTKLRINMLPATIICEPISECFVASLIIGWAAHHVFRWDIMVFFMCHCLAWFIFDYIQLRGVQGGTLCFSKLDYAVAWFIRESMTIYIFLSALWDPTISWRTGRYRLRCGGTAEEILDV
Put plainly: Human GCS inhibition, recombinant enzyme expressed in insect cells. It is filed as biochemical.

The next experiment relates to glycolipid biosynthesis. The note with it: as disclosed in EP-A-0698012; cited from earlier work.
Experiment [1] has as its target Jack bean β-galactosidase. Kind of experiment: Jack bean β-galactosidase inhibition. It counts as biochemical.
Experiment [2] deals with T2, Mouse ceramide β-galactosidase (Mus musculus, UniProt P54818).
T2 sequence (P54818 43-684): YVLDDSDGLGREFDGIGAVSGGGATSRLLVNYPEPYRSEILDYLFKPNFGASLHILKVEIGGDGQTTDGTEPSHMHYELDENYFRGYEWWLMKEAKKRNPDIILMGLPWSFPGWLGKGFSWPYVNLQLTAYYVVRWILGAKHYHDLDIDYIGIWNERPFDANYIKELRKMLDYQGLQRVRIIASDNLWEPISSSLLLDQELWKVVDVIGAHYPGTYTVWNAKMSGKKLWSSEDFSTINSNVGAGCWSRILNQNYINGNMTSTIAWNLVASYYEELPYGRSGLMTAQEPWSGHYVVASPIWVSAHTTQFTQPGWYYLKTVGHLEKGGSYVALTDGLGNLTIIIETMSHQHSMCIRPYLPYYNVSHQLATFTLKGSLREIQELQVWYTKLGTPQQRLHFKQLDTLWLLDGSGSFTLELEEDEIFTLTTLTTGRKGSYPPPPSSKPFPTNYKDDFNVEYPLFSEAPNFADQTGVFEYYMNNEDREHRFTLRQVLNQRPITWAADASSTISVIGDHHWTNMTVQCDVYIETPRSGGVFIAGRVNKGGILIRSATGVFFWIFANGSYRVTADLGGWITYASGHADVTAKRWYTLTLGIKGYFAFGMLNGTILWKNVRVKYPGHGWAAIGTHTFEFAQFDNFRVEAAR
Kind of experiment: Mouse ceramide β-galactosidase inhibition. It is filed as biochemical.

Experiment [3] concerns the target Porcine intestinal lactase (Sus scrofa, UniProt F1S0D7). Kind of experiment: Porcine intestinal lactase inhibition. It counts as biochemical. The note with it: read-out: Porcine intestinal lactase (Ki μM).
In another experiment the target is T3, Human β-galactosidase (Homo sapiens, UniProt P16278).
T3 sequence (P16278 29-677): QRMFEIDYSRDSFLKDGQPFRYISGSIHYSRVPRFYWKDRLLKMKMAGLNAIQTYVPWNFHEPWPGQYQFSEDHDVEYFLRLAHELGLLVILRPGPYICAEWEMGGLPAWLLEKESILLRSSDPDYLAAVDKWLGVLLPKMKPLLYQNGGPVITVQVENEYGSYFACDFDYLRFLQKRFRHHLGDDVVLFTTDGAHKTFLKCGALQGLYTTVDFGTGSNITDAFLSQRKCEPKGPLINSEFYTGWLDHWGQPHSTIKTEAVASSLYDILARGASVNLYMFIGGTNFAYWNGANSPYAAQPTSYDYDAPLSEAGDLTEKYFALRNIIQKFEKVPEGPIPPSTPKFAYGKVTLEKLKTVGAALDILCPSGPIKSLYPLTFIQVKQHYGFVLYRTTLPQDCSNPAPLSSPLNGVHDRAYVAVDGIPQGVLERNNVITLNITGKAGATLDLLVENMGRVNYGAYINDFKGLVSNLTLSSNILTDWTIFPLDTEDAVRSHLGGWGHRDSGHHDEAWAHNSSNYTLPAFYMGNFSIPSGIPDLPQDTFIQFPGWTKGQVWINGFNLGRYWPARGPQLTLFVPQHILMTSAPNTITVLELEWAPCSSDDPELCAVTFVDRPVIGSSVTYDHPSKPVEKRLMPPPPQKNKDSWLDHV
Put plainly: Human β-galactosidase assay. It is filed as biochemical. The protocol: The glucosidase assays were performed as described (Biochemical Genetics, A Laboratory Manual, Oxford University Press) except that p-nitrophenyl linked substrates were used instead of methylumbelliferone linked substrates.

The next experiment deals with Human α-glucosidase. Kind of experiment: Human α-glucosidase assay, p-nitrophenyl linked substrates. It counts as biochemical.

A value given as a limit tells only on which side of the number the result lay.

Chain of Porcine intestinal lactase (F1S0D7 840-1898): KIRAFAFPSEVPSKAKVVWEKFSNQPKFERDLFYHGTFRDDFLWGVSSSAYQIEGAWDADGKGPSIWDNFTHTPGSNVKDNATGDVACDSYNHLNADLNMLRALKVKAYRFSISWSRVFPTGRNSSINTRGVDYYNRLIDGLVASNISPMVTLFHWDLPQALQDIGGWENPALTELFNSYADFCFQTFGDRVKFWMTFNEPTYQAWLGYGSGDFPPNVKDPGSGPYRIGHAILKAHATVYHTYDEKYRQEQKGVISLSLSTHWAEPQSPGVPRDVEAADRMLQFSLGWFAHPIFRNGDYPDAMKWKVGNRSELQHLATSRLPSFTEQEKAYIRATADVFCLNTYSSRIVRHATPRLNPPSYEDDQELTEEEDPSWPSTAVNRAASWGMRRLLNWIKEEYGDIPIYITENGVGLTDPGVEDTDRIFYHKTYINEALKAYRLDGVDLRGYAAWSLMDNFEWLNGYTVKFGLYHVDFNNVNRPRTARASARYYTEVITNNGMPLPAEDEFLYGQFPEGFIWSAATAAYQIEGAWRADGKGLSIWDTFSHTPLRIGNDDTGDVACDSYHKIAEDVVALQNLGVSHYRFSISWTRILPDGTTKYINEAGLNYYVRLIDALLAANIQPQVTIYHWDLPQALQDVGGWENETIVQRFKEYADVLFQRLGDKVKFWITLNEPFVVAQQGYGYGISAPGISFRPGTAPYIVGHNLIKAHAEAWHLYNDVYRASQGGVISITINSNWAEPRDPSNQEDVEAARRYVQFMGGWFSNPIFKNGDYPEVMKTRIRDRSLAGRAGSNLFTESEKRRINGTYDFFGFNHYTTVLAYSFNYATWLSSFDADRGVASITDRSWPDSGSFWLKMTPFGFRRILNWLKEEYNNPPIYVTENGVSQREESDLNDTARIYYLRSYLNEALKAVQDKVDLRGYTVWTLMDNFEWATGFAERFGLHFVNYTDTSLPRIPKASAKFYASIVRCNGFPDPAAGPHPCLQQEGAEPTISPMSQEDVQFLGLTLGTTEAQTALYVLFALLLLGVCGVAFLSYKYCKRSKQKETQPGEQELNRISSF

As to `CCCCCN1CC(O)C(O)C(O)C1CO` [Example 3, 3,4,5-Piperidinetriol, 1-pentyl-2-(hydroxymethyl)-, (2S,3R,4R,5S)], on human recombinant GCS, the half-maximal inhibitory concentration (IC50) is 4 µM. For `CCCCN1C[C@@H](O)[C@H](O)[C@H](O)[C@@H]1C` [NB-DFJ], the “inhibition of glycolipid biosynthesis” value in the experiment with glycolipid biosynthesis was “do not act as inhibitors”. On to `CCCCN1C[C@H](O)[C@@H](O)[C@@H](O)[C@H]1CO` [NB-DGJ, N-butyldeoxygalactonojirimycin], for which the IC50 came to 3.4 µM in experiment [1] and 370 µM in experiment [2]. Also, the Ki turned out to be 85 µM in experiment [3] and 40 µM on Human β-galactosidase. For `CCCCN1C[C@H](O)[C@@H](O)[C@H](O)[C@H]1CO` [NB-DNJ, N-butyldeoxynojirimycin], at Human α-glucosidase, the IC50 is < 20 µM. As to `CCCCN1CC(O)C(O)C(O)C1CO` [Example 5, 3,4,5-Piperidinetriol, 1-butyl-2-hydroxymethyl)-, (2S,3S,4R,5S)], in experiment [3], the inhibition constant Ki came out at 8000 µM. For the compound `CCCCN1C[C@H](NC(C)=O)[C@@H](O)[C@H](O)[C@H]1CO` [NB-NAG], the “inhibition of glycolipid biosynthesis” value in the experiment with glycolipid biosynthesis is on record as “do not act as inhibitors”. Regarding `CCCCN1C[C@@H](O)[C@@H](O)[C@H](O)[C@H]1CO` [NB-DMJ], in the experiment on glycolipid biosynthesis, the “inhibition of glycolipid biosynthesis” value is “do not act as inhibitors”.

As a reminder, the IC50 is the concentration needed to halve the response being measured. The term Ki denotes a measure of affinity in units of concentration, obtained from inhibition or displacement.
